Source: ChEMBL document CHEMBL1126122, “Non-prostanoid thromboxane A2 receptor antagonists with a dibenzoxepin ring system. 2” (J Med Chem, 1992)

Assays:
[1] = Binding affinity at TXA2/PGH2 receptor by displacement of [3H]U-46619 from human platelets
[2] = organism: Cavia porcellus; assay: Inhibitory effect on the U-46619 induced platelet aggregation was determined ex vivo in the guinea pig; type: functional
[3] = Binding affinity at TXA2/PGH2 receptor by measuring its ability to displace [3H]U-46619 from guinea pig platelets
[4] = organism: Cavia porcellus; assay: Compound was tested for its binding affinity at TXA2/PGH2 receptor by measuring its ability to displace [3H]U-46619 from guinea pig platelets at 0.1 uM
[5] = Binding affinity at Thromboxane A2/ Prostaglandin H2 receptor by measuring its ability to displace [3H]U-46619 from guinea pig platelets at a compound concentration of 0.1 uM; settings: Cavia porcellus

SMILES	Ki [1] [nM]	further results
O=C(O)c1ccc2c(c1)/C(=C/Cn1cnc3cc(Cl)ccc31)c1ccccc1CO2	11	
O=C(O)c1ccc2c(c1)/C(=C/Cn1cnc3ccc(C(=O)NCc4ccccc4)cc31)c1ccccc1CO2	14	
Cc1ccc2c(c1)ncn2C/C=C1\c2ccccc2COc2ccc(C(=O)O)cc21	110	
O=C([O-])c1ccc2c(c1)/C(=C\Cn1cnc3ccccc31)c1ccccc1CO2.[Na+]		Inhibition of U-46619-induced platelet aggregation [2]: 0%
O=C(O)c1ccc2c(c1)/C(=C/Cn1cnc3cc(F)ccc31)c1ccccc1CO2	15	
O=C(O)c1ccc2c(c1)/C(=C/CCNS(=O)(=O)c1ccccc1)c1ccccc1CO2		inhibition ([3]; Cavia porcellus, concentration not given here): -6%
COc1cc(OC)c2c(c1)ncn2C/C=C1\c2ccccc2COc2ccc(C(=O)O)cc21	6.7	
Cc1cccc2c1ncn2C/C=C1\c2ccccc2COc2ccc(C(=O)O)cc21	38	
O=C(O)Cc1ccc(CCNS(=O)(=O)c2ccc(Cl)cc2)cc1 [DALTROBAN]		Aggregation [2]: 0%
Cc1cc(C)c2ncn(C/C=C3\c4ccccc4COc4ccc(C(=O)O)cc43)c2c1	7.6	
Cc1cccc2ncn(C/C=C3\c4ccccc4COc4ccc(C(=O)O)cc43)c12	8	
O=C(O)c1ccc2c(c1)/C(=C\CCNS(=O)(=O)c1ccccc1)c1ccccc1CO2		inhibition [4]: 50%; Inhibition of U-46619-induced platelet aggregation [2]: 59.3%
O=C(O)c1ccc2c(c1)/C(=C/Cn1cnc3cnccc31)c1ccccc1CO2		inhibition [4]: -6%
Cc1ccc2c(ncn2C/C=C2\c3ccccc3COc3ccc(C(=O)O)cc32)c1C	46	
O=C(O)c1ccc2c(c1)/C(=C/CNS(=O)(=O)c1ccccc1)c1ccccc1CO2		Inhibition of U-46619-induced platelet aggregation [2]: 25%
Cc1nc2ccccc2n1C/C=C1\c2ccccc2COc2ccc(C(=O)O)cc21		inhibition [4]: 4%
CSc1nc2ccccc2n1C/C=C1\c2ccccc2COc2ccc(C(=O)O)cc21		inhibition [5]: 11%
COc1ccc2c(c1)ncn2C/C=C1\c2ccccc2COc2ccc(C(=O)O)cc21	17	

SMILES	Ki [1] [nM]	further results
COc1cc(OC)c2ncn(C/C=C3\c4ccccc4COc4ccc(C(=O)O)cc43)c2c1	9.1	
COc1ccc2ncn(C/C=C3\c4ccccc4COc4ccc(C(=O)O)cc43)c2c1	7.4	
Cc1cc2ncn(C/C=C3\c4ccccc4COc4ccc(C(=O)Nc5ccccc5C(=O)O)cc43)c2cc1C		inhibition [4]: 6%
O=C(O)c1ccc2c(c1)C(SCCNS(=O)(=O)c1ccccc1)c1ccccc1CO2 (stereo not drawn)		Inhibition of U-46619-induced platelet aggregation [2]: 11.8%; Ki [3]: 32 nM
O=C(O)c1ccc2c(c1)/C(=C/Cn1cnc3cc(C(F)(F)F)ccc31)c1ccccc1CO2	85	
COC(=O)c1ccc2c(c1)/C(=C/Cn1cnc3cc(C)c(C)cc31)c1ccccc1CO2		inhibition [4]: 31%
O=C(O)c1ccc2c(c1)/C(=C/Cn1nnc3ccccc31)c1ccccc1CO2		inhibition [4]: 35%
O=C(O)c1ccc2c(c1)/C(=C/Cn1cnc3cc4c(cc31)OCO4)c1ccccc1CO2	3.8	
Cc1cc2ncn(C/C=C3\c4ccccc4COc4ccc(C(=O)N5CCOCC5)cc43)c2cc1C		inhibition [4]: -4%
O=C(O)c1ccc2c(c1)/C(=C/Cn1cnc3cc(C(=O)NCc4ccccc4)ccc31)c1ccccc1CO2	7.4	
O=C(O)c1ccc2c(c1)/C(=C/Cn1cnc3ccc(Cl)cc31)c1ccccc1CO2	19	
O=C(O)c1ccc2c(c1)/C(=C/Cn1cnc3ccc([N+](=O)[O-])cc31)c1ccccc1CO2	9.1	
Cc1ccc2ncn(C/C=C3\c4ccccc4COc4ccc(C(=O)O)cc43)c2c1	12	
O=C(O)c1ccc2c(c1)C(SCCn1cnc3ccccc31)c1ccccc1CO2 (stereo not drawn)		inhibition [4]: 9%
O=C(O)c1ccc2c(c1)C(SCCc1nc3ccccc3[nH]1)c1ccccc1CO2 (stereo not drawn)		Inhibition of U-46619-induced platelet aggregation [2]: 66.3%
Cc1cc2ncn(C/C=C3\c4ccccc4COc4ccc(C(=O)O)cc43)c2cc1C	1.2	
O=C(O)c1ccc2c(c1)/C(=C/Cn1cnc3cc([N+](=O)[O-])ccc31)c1ccccc1CO2	9.2	
COc1cc2ncn(C/C=C3\c4ccccc4COc4ccc(C(=O)O)cc43)c2cc1OC	2.2	
